Drawing on ChEMBL document CHEMBL3991601, “The target landscape of clinical kinase drugs” (Science, 2017), this text covers Kd for nine molecules.

One experiment deals with T1, UMP-CMP kinase (Homo sapiens, UniProt P30085).
T1 sequence (P30085 whole entry): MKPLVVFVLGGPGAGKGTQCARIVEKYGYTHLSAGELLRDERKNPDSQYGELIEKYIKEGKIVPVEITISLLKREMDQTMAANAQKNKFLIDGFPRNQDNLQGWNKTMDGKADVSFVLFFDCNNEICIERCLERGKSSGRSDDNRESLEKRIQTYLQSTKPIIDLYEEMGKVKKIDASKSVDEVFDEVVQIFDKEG

The target of experiment [1] is Dual specificity tyrosine-phosphorylation-regulated kinase 1B (Homo sapiens, UniProt Q9Y463).
Dual specificity tyrosine-phosphorylation-regulated kinase 1B, sequence (Q9Y463 whole entry): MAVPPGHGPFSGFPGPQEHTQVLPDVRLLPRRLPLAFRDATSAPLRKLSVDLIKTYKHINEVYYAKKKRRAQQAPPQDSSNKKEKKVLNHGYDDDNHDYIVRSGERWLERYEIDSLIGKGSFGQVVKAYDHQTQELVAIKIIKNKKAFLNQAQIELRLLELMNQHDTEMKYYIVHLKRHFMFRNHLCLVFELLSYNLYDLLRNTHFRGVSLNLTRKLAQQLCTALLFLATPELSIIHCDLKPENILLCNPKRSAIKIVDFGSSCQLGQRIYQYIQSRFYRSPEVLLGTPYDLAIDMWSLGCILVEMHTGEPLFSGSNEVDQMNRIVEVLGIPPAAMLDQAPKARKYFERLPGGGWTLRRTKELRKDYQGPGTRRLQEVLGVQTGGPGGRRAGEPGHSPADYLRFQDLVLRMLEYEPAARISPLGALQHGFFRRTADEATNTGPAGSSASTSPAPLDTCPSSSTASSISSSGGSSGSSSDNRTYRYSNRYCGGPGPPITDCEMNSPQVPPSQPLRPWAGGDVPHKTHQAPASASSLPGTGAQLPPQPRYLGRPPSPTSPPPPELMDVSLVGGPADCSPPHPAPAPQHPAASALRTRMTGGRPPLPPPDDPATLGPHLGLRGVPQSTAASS
Experiment [2] has as its target Tyrosine-protein kinase Fgr (Homo sapiens, UniProt P09769).
In experiment [3] the target is Guanine nucleotide-binding protein G(i) subunit alpha-2 (Homo sapiens, UniProt P04899).
Guanine nucleotide-binding protein G(i) subunit alpha-2, sequence (P04899 whole entry): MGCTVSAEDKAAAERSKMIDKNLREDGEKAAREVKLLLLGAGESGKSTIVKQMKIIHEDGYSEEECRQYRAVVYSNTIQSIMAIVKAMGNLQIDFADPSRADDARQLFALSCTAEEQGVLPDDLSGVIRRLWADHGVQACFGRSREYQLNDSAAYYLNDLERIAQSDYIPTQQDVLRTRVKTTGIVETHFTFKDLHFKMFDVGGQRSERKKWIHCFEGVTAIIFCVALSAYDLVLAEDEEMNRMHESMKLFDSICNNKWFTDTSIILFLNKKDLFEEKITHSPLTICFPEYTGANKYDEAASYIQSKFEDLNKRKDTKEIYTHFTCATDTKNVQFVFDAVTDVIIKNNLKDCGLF
In experiment [4] the target is Mitogen-activated protein kinase 14 (Homo sapiens, UniProt Q16539).
Mitogen-activated protein kinase 14, sequence (Q16539 whole entry): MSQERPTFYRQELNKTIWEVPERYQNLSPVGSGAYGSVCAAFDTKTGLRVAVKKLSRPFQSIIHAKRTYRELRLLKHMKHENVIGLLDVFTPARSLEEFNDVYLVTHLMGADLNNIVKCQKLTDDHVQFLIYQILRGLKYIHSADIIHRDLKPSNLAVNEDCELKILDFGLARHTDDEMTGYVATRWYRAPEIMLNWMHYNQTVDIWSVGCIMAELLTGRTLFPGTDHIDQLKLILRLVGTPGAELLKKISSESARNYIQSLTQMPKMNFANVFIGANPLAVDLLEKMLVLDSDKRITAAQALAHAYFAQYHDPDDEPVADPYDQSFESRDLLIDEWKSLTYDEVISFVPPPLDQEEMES
A further experiment addresses Myosin-10 (Homo sapiens, UniProt P35580).
Experiment [5] addresses Serine/threonine-protein kinase N3 (Homo sapiens, UniProt Q6P5Z2).
The target of experiment [6] is T2, ATP-dependent RNA helicase DHX30 (Homo sapiens, UniProt Q7L2E3).
T2 sequence (Q7L2E3 whole entry): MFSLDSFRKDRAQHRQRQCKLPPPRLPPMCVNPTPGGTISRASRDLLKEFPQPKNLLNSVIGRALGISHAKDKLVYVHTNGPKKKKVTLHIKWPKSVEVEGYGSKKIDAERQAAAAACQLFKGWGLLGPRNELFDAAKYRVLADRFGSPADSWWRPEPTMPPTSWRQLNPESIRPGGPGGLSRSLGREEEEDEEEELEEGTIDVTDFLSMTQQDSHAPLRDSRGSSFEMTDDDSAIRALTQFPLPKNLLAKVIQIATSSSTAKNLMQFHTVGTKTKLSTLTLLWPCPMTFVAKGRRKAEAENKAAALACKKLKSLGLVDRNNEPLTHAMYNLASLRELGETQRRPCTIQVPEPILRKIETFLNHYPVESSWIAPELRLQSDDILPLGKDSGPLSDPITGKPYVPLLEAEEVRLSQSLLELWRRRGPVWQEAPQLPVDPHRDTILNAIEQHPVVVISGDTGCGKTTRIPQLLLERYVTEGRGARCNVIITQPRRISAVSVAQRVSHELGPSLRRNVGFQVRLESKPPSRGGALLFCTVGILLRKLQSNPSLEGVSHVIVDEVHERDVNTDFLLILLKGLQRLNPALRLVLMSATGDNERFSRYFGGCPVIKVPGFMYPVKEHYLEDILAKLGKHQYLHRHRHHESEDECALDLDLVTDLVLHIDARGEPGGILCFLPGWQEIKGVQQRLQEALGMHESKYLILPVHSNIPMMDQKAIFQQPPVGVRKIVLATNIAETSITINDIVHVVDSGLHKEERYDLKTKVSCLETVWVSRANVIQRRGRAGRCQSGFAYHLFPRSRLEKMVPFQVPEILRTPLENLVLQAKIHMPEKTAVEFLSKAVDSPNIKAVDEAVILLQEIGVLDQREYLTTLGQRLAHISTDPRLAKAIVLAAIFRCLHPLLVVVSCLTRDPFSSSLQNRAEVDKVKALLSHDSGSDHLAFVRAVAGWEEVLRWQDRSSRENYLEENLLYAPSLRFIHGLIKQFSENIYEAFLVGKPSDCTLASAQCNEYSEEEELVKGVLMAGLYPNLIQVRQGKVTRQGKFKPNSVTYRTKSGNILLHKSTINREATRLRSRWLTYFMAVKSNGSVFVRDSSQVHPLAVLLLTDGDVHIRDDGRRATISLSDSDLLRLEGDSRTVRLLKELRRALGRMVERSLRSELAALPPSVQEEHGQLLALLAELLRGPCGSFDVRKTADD

Experiment [7] deals with T3, Dual specificity mitogen-activated protein kinase kinase 4 (Homo sapiens, UniProt P45985).
T3 sequence (P45985 whole entry): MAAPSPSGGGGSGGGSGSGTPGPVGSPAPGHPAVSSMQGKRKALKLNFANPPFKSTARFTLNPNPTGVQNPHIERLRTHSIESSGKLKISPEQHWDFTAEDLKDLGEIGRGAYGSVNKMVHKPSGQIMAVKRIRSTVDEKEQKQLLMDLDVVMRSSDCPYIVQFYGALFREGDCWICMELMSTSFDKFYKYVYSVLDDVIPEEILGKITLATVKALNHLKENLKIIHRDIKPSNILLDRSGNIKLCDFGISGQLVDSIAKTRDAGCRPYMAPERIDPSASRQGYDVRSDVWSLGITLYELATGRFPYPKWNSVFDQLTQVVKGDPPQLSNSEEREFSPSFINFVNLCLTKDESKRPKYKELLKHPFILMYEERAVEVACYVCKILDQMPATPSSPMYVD

In experiment [8] the target is MAP kinase-activated protein kinase 3 (Homo sapiens, UniProt Q16644).
MAP kinase-activated protein kinase 3, sequence (Q16644 whole entry): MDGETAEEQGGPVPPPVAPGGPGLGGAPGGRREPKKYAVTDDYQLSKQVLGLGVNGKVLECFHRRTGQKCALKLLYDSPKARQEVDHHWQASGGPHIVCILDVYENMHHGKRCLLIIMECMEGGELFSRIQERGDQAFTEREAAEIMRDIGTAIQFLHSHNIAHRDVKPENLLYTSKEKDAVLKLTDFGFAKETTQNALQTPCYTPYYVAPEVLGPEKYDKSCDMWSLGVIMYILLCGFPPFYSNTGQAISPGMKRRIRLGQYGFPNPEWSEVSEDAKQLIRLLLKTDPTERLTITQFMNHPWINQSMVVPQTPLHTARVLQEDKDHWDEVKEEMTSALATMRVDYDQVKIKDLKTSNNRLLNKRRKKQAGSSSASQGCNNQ

Structures are written as SMILES. Activity calls are given as the source filed them.
Also: in the data inactive means no Kd found up to 30 µM.

Myosin-10, sequence (P35580 whole entry): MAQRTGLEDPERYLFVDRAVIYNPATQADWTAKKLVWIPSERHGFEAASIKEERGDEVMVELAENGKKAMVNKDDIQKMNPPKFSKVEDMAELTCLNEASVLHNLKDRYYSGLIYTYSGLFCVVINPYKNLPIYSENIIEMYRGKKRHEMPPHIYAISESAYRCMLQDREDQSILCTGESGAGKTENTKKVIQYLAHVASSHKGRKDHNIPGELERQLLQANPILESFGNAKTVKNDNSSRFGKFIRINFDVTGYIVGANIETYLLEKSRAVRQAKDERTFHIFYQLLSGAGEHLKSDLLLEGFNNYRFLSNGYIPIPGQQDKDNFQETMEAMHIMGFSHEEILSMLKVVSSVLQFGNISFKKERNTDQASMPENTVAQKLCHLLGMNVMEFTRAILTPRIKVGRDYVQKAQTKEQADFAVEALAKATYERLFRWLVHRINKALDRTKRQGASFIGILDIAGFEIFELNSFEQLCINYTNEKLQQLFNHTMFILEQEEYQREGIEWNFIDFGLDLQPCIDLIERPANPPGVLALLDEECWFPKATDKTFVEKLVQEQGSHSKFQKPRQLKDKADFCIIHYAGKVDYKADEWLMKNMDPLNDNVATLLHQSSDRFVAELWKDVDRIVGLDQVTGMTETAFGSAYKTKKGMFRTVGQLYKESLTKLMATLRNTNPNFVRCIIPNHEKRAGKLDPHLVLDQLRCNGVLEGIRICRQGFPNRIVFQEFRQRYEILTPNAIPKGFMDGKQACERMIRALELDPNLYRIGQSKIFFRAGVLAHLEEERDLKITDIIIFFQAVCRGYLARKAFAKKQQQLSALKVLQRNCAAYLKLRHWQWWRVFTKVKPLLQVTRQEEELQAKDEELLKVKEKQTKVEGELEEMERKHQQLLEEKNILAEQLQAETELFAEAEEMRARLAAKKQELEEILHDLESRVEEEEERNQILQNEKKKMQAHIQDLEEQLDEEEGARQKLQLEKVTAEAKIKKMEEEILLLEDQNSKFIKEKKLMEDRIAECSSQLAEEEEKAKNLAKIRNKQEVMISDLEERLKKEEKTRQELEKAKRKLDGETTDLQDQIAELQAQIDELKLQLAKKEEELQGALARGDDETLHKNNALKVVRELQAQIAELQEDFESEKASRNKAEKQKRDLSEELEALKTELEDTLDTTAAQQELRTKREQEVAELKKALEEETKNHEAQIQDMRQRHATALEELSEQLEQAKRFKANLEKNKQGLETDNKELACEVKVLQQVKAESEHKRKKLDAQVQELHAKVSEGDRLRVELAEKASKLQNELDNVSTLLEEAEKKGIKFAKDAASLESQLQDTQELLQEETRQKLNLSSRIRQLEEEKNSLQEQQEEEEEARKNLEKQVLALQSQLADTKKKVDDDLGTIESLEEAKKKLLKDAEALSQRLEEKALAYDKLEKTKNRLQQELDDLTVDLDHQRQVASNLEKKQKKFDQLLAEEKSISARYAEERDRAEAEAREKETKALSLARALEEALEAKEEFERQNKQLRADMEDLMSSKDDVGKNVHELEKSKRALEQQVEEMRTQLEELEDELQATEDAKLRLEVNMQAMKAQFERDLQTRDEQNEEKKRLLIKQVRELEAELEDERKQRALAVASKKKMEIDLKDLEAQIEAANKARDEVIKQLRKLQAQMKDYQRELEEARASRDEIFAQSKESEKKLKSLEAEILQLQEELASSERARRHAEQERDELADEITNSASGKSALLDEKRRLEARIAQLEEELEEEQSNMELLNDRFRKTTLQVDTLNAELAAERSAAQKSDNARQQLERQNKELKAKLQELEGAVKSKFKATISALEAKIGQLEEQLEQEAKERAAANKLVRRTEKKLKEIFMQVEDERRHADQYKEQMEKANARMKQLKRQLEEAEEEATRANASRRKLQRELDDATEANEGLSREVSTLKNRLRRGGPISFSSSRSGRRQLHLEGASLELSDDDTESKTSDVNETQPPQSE
Serine/threonine-protein kinase N3, sequence (Q6P5Z2 whole entry): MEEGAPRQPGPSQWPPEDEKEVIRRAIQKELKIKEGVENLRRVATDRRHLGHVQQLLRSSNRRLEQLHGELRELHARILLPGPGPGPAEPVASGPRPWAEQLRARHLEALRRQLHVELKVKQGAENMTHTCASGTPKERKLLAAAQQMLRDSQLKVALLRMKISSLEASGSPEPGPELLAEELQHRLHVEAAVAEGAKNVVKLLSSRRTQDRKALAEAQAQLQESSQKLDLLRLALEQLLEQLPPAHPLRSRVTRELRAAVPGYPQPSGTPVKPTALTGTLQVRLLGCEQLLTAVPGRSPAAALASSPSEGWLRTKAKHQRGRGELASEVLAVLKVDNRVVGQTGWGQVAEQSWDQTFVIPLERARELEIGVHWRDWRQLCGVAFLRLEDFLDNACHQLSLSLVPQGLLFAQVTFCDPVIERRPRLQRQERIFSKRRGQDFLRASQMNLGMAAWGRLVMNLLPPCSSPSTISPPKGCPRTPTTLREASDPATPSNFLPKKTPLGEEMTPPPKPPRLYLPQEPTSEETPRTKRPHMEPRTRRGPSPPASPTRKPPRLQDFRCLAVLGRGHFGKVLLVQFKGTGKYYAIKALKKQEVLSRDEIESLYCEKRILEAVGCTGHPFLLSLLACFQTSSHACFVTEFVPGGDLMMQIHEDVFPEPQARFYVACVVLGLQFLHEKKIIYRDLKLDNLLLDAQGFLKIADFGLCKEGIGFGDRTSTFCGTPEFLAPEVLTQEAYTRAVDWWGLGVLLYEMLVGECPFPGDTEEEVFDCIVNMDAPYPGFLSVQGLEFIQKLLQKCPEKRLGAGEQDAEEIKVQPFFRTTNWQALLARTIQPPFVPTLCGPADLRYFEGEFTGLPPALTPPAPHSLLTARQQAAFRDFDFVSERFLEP

What is called Kd is the free concentration of one partner at which half of the binding sites on the other are occupied at equilibrium, for simple one-to-one binding. Take `CCCS(=O)(=O)Nc1ccc(F)c(C(=O)c2c[nH]c3ncc(-c4ccc(Cl)cc4)cc23)c1F` [VEMURAFENIB]: the Kd (on UMP-CMP kinase; in experiment [1]; in experiment [2]; in [3]; in experiment [4]; at Myosin-10) was > 30 µM (inactive) throughout. In addition, the Kd in experiment [5] was > 30 µM (inactive).
`COC(=O)N[C@@H](C)CNc1nccc(-c2cn(C(C)C)nc2-c2cc(Cl)cc(NS(C)(=O)=O)c2F)n1` [ENCORAFENIB]: the Kd (at UMP-CMP kinase; in [6]; in [1]; in [3]; in [4]; at Myosin-10) was > 30 µM (inactive) each time. In [5], the Kd is > 30 µM (inactive).
With `COC(=O)[C@@]1(O)C[C@H]2O[C@]1(C)n1c3ccccc3c3c4c(c5c6ccccc6n2c5c31)C(=O)NC4` [K-252A], the Kd in experiment [6], in experiment [1], in experiment [7], in experiment [4], in [8] and in [5] was > 30 µM (inactive) in each case.
In the case of `COc1ccc(-c2ccc3c(N4CCOC[C@@H]4C)nc(N4CCOC[C@@H]4C)nc3n2)cc1CO` [AZD-8055], the Kd (on UMP-CMP kinase; in experiment [6]; in [1]; in experiment [3]; in experiment [7]; in experiment [4]) was > 30 µM (inactive) each time. For the same molecule, the Kd (at Myosin-10; in experiment [5]) was > 30 µM (inactive) in each case.
Turning to `O=C1NC(=O)/C(=C/c2ccc3nccc(-c4ccncc4)c3c2)S1` [GSK-1059615], the Kd (in experiment [6]; in experiment [1]; in [3]; in experiment [4]; at Myosin-10) was > 30 µM (inactive) each time.
For the molecule `Cc1cc2c(F)c(Oc3ncnn4cc(OC[C@@H](C)OC(=O)[C@H](C)N)c(C)c34)ccc2[nH]1` [BRIVANIB ALANINATE], the Kd (on UMP-CMP kinase; in [6]; in [1]; in [3]; in experiment [7]; in experiment [4]) was > 30 µM (inactive) in each case. In addition, the Kd (in [8]; on Myosin-10; in [5]) was > 30 µM (inactive) in each case.
For the molecule `CC(C)Nc1cc(-c2c[nH]c(C(=O)N[C@H](CO)c3cccc(Cl)c3)c2)c(Cl)cn1` [ULIXERTINIB], the Kd (on UMP-CMP kinase; in [1]; in experiment [7]; in experiment [4]; in experiment [8]; at Myosin-10) was > 30 µM (inactive) in each case.
For `Cc1ccc(NC(=O)c2ccc(CN3CC[C@H](N(C)C)C3)c(C(F)(F)F)c2)cc1Nc1nccc(-c2cncnc2)n1` [BAFETINIB], the Kd was > 30 µM (inactive) on UMP-CMP kinase; > 30 µM (inactive) in experiment [1]; > 30 µM (inactive) in experiment [3]; > 30 µM (inactive) in experiment [7]; 0.536 µM (active) in [4]; 0.023 µM (active) in [8]. The Kd (at Myosin-10; in experiment [5]) was > 30 µM (inactive) throughout.
With `CN1N=C(N)c2cn([C@@H]3O[C@H](COP(=O)(O)O)[C@@H](O)[C@H]3O)c3ncnc1c23` [TRICIRIBINE PHOSPHATE], the Kd (at UMP-CMP kinase; in experiment [6]; in [1]; in experiment [2]; in experiment [4]; at Myosin-10) was > 30 µM (inactive) throughout.
